Experiment: Absorption rate of chlorpyrifos onto LDPE and ethylene/acrylic acid (EAA) pellets
Type: physicochemical
Settings: 85° C.; for Actual Weight % Chlorpyrifos Found in Copolymer EAA: EAA (Primacor 1430) pellets; for % of Chlorpyrifos Absorbed onto Copolymer EAA: EAA pellets, relative to 0.88% maximum; for Actual Weight % Chlorpyrifos Found in LDPE / % of Chlorpyrifos Absorbed onto LDPE: LDPE pellets; for % of Chlorpyrifos Absorbed onto LDPE: relative to 0.90% maximum
Procedure: A constant temperature oven is set at 85° C. by using a thermowatch controller and an infrared heat lamp. A wide mouth quart jar containing 247.5 g of 749 low density polyethylene (LDPE) or an equivalent amount of Primacor® 1430 pellets is placed into the oven and left overnight. Primacor® is a copolymer of ethylene/acrylic acid (EAA) containing 9 percent (%) by weight acrylic acid. Two and one-half grams of liquid Dursban® insecticide heated to 50° C. are added to each jar to give a calculated concentration of 1 percent chlorpyrifos in the polymer. The Dursban® insecticide contains 99 percent chlorpyrifos and 1 percent inert ingredients. The jar is shaken initially, returned to the oven, and then removed every 5 minutes and reshaken. A first sample of 10 pellets is taken from the jar after 15 minutes. The pellets are placed on an ice water bath for 1 minute, removed with tweezers and placed into a 50 ml beaker. The pellets are rinsed with 5 mls of acetone to remove excess water. The pellets are rinsed with 5 mls of methylene chloride to remove chlorpyrifos coated on the pellet surface. The solvent is decanted after each rinse and the pellets are dried by blowing nitrogen over them for three minutes. The pellets are weighed on an analytical balance, placed into a 2 ounce bottle and the chlorpyrifos absorbed by the pellets is extracted by shaking the pellets with 20 mls of chloroform on an automatic shaker overnight. The chloroform extract, after appropriate dilution, is measured at 292 nanometers wave length on an ultraviolet (UV) spectrophotometer. The absorbence of the sample extract is compared to a standard curve of absorbence from a known concentration of chlorpyrifos in chloroform. The absorption rate for the Primacor® 1430 pellets is determined in the same manner as the LDPE.

[1] = assumed, based on a time of 180 minutes

For `CCOP(=S)(OCC)Oc1nc(Cl)c(Cl)cc1Cl` [Chlorpyrifos, O,O-diethyl-3,5,6-trichloro-2-pyridyl phosphorothioate], the “Actual Weight % Chlorpyrifos Found in Copolymer EAA” value (0 minutes) was 0.0 Weight %, the “Actual Weight % Chlorpyrifos Found in Copolymer EAA” value (15 minutes) was 0.71 Weight % and the “Actual Weight % Chlorpyrifos Found in Copolymer EAA” value (30 minutes) was 0.80 Weight %. The “Actual Weight % Chlorpyrifos Found in Copolymer EAA” value (45 minutes) was 0.85 Weight %, the “Actual Weight % Chlorpyrifos Found in Copolymer EAA” value (60 minutes) was 0.84 Weight % and the “Actual Weight % Chlorpyrifos Found in Copolymer EAA” value (90 minutes) was 0.83 Weight %. The “Actual Weight % Chlorpyrifos Found in Copolymer EAA” value (120 minutes) was 0.95 Weight %, the “Actual Weight % Chlorpyrifos Found in Copolymer EAA” value (150 minutes) was 0.86 Weight % and the “Actual Weight % Chlorpyrifos Found in Copolymer EAA” value (180 minutes) was 0.88 Weight %. The “% of Chlorpyrifos Absorbed onto Copolymer EAA” value (0 minutes) was 0.0%, the “% of Chlorpyrifos Absorbed onto Copolymer EAA” value (15 minutes) was 80.7% and the “% of Chlorpyrifos Absorbed onto Copolymer EAA” value (30 minutes) was 90.9%. The “% of Chlorpyrifos Absorbed onto Copolymer EAA” value (45 minutes) was 96.6%, the “% of Chlorpyrifos Absorbed onto Copolymer EAA” value (60 minutes) was 95.5% and the “% of Chlorpyrifos Absorbed onto Copolymer EAA” value (90 minutes) was 94.3%. For the same compound, the “% of Chlorpyrifos Absorbed onto Copolymer EAA” value (120 minutes) was 108.0%, the “% of Chlorpyrifos Absorbed onto Copolymer EAA” value (150 minutes) was 97.7% and the “% of Chlorpyrifos Absorbed onto Copolymer EAA” value (180 minutes) was 100.0%. The “Actual Weight % Chlorpyrifos Found in LDPE” value (0 minutes) was 0.0 Weight %, the “% of Chlorpyrifos Absorbed onto LDPE” value (0 minutes) was 0.0% and the “Actual Weight % Chlorpyrifos Found in LDPE” value (15 minutes) was 0.64 Weight %. For the same compound, the “% of Chlorpyrifos Absorbed onto LDPE” value (15 minutes) was 71.1%, the “Actual Weight % Chlorpyrifos Found in LDPE” value (30 minutes) was 0.76 Weight % and the “% of Chlorpyrifos Absorbed onto LDPE” value (30 minutes) was 84.4%. The “Actual Weight % Chlorpyrifos Found in LDPE” value (45 minutes) was 0.86 Weight %, the “% of Chlorpyrifos Absorbed onto LDPE” value (45 minutes) was 95.6% and the “Actual Weight % Chlorpyrifos Found in LDPE” value (60 minutes) was 0.91 Weight %. The “% of Chlorpyrifos Absorbed onto LDPE” value (60 minutes) was 101.1%, the “Actual Weight % Chlorpyrifos Found in LDPE” value (90 minutes) was 0.89 Weight % and the “% of Chlorpyrifos Absorbed onto LDPE” value (90 minutes) was 98.9%. The “Actual Weight % Chlorpyrifos Found in LDPE” value (120 minutes) was 0.92 Weight %, the “% of Chlorpyrifos Absorbed onto LDPE” value (120 minutes) was 102.2% and the “Actual Weight % Chlorpyrifos Found in LDPE” value (150 minutes) was 1.07 Weight %. For the same compound, the “% of Chlorpyrifos Absorbed onto LDPE” value (150 minutes) was 118.9%, the “Actual Weight % Chlorpyrifos Found in LDPE” value (180 minutes) was 0.90 Weight % and the “% of Chlorpyrifos Absorbed onto LDPE” value (180 minutes) was 100.0%. For the same compound, the “maximum absorption by the Copolymer EAA” value [1] was 0.88 % by weight and the “maximum absorption of chlorpyrifos by the LDPE” value [1] was 0.90 % by weight.

Source: patent US4888174A, “Insecticidal polymeric compositions” (priority 1988, dated 1989)
